Assay results published in ChEMBL document CHEMBL3585311, “Computational design and chemometric QSAR modeling of Plasmodium falciparum carbonic anhydrase inhibitors” (Bioorg Med Chem Lett, 2014).

Assay: Inhibition of Plasmodium falciparum recombinant carbonic anhydrase

Question: With `NS(=O)(=O)c1ccc(NC(=O)c2cc3ccccc3oc2=O)cc1` as the molecule, how does the Ki read?
Answer: 5.82 µM

Question: Which Ki does the source give for `NS(=O)(=O)c1ccc(NNC(=O)c2cc3ccccc3oc2=O)cc1` here?
Answer: 4.06 µM

Question: With `NS(=O)(=O)c1ccc(Nc2ncc(Cl)s2)cc1` as the molecule, how does the Ki read?
Answer: 0.164 µM

Question: Which Ki does the source give for `COc1ccc2cncc(CC(=O)Nc3ccccc3S(N)(=O)=O)c2c1` here?
Answer: 2.66 µM

Question: Which Ki does the source give for `NS(=O)(=O)c1cc(S(N)(=O)=O)c(C(F)(F)F)cc1NC(=O)c1cc2ccccc2oc1=O` here?
Answer: 9.03 µM

Question: Which Ki does the source give for `CCc1c(Cl)ccc(NC(=O)NC(=S)Nc2ccc(S(N)(=O)=O)cc2)c1Cl` here?
Answer: 0.464 µM

Question: With `CC(F)(F)Nc1ccc(S(N)(=O)=O)cc1` as the molecule, how does the Ki read?
Answer: 0.74 µM

Question: With `Cc1ccc(NC(=O)NC(=S)Nc2ccc(S(N)(=O)=O)cc2)s1` as the molecule, how does the Ki read?
Answer: 0.505 µM

Question: Which Ki does the source give for `CCN(CC)C(=S)SNc1ccc(S(N)(=O)=O)cc1` here?
Answer: 3 µM

Question: With `Cc1cc(F)c(C)c(NC(=O)NC(=S)Nc2ccc(S(N)(=O)=O)cc2)c1` as the molecule, how does the Ki read?
Answer: 0.518 µM

Question: For `NS(=O)(=O)c1ccc(CNC(=O)N(c2ccccc2)c2ccccc2)cc1`, which Ki is on record?
Answer: 6.03 µM

Question: With `NS(=O)(=O)c1ccc(NC(=S)NC(=O)Nc2ccc(CC(Cl)Cl)cc2)cc1` as the molecule, how does the Ki read?
Answer: 0.756 µM

Question: For `NS(=O)(=O)c1ccccc1NC(=O)c1cc2ccccc2oc1=O`, which Ki is on record?
Answer: 18.5 µM

Question: With `COc1ccc2oc(=O)cc(CC(=O)Nc3cccc(S(N)(=O)=O)c3)c2c1` as the molecule, how does the Ki read?
Answer: 4.58 µM

Question: Which Ki does the source give for `NS(=O)(=O)c1ccc(Nc2nocc2Cl)cc1` here?
Answer: 0.164 µM

Question: Which Ki does the source give for `Cc1c(NC(=O)NC(=S)Nc2ccc(S(N)(=O)=O)cc2)cn2ncccc12` here?
Answer: 0.433 µM

Question: Which Ki does the source give for `Cc1ccc(C)c(N(C(=O)Nc2ccccc2S(N)(=O)=O)c2ccccc2)c1F` here?
Answer: 3.32 µM

Question: Which Ki does the source give for `CCN(CC)C(=S)SNCc1ccc(S(N)(=O)=O)cc1` here?
Answer: 8.39 µM

Question: With `COc1cc(CC(=O)Nc2ccccc2S(N)(=O)=O)c2ccccc2c1Cl` as the molecule, how does the Ki read?
Answer: 4.28 µM

Question: For `NS(=O)(=O)c1nnc(NC(=O)c2c(F)c(F)c(F)c(F)c2F)s1`, which Ki is on record?
Answer: 3.44 µM

Question: For `NS(=O)(=O)c1ccc(CNC(=O)c2cc3ccccc3oc2=O)cc1`, which Ki is on record?
Answer: 5.05 µM

Question: Which Ki does the source give for `NS(=O)(=O)c1ccc(NC(=S)NC(=O)Nc2ccc(Cl)c(Cl)c2)cc1` here?
Answer: 0.18 µM

Question: With `NS(=O)(=O)c1nnc(NC(=S)NC(=O)Nc2ccccc2)s1` as the molecule, how does the Ki read?
Answer: 6.73 µM

Question: For `NS(=O)(=O)c1ccccc1NC(=O)N(c1ccccc1)c1ccccc1`, which Ki is on record?
Answer: 1.99 µM

Question: With `NS(=O)(=O)c1ccc(NC(=S)NC(=O)Nc2ccc(Cl)cc2)cc1` as the molecule, how does the Ki read?
Answer: 0.327 µM

Question: For `NS(=O)(=O)c1ccc(Nc2cscn2)cc1`, which Ki is on record?
Answer: 0.237 µM

Question: For `CC(C)(O)Nc1ccc(S(N)(=O)=O)cc1`, which Ki is on record?
Answer: 2.22 µM

Question: For `COc1ccc2oc(=O)cc(CC(=O)c3cc(C(F)(F)F)c(S(N)(=O)=O)cc3S(N)(=O)=O)c2c1`, which Ki is on record?
Answer: 2.52 µM

Question: For `Cc1cc(NC(=O)NC(=S)Nc2ccc(S(N)(=O)=O)cc2)c(Cl)c(C)c1Cl`, which Ki is on record?
Answer: 0.514 µM

Question: Which Ki does the source give for `Cc1cc(C)cc(N(C(=O)Nc2ccccc2S(N)(=O)=O)c2ccccc2)c1` here?
Answer: 4.09 µM

Question: For `NS(=O)(=O)c1ccc(NC(=S)NC(=O)Nc2cccc(F)c2)cc1`, which Ki is on record?
Answer: 0.424 µM

Question: For `Cc1cc(Cl)cc(C)c1NC(=O)NC(=S)Nc1ccc(S(N)(=O)=O)cc1`, which Ki is on record?
Answer: 0.596 µM

Question: For `NS(=O)(=O)c1ccc(CCNC(=O)c2cc3ccccc3oc2=O)cc1`, which Ki is on record?
Answer: 13.2 µM

Question: For `NS(=O)(=O)c1ccccc1NC(=O)N(c1ccccc1)c1cccc(Cl)c1`, which Ki is on record?
Answer: 1.65 µM

Question: Which Ki does the source give for `NS(=O)(=O)c1ccc(NS(=O)(=O)c2ccc(NC(=O)N(c3ccccc3)c3ccccc3)cc2)cc1` here?
Answer: 16.5 µM

Question: For `NS(=O)(=O)c1ccccc1NS(=O)(=O)c1c(F)c(F)c(F)c(F)c1F`, which Ki is on record?
Answer: 3.06 µM

Question: Which Ki does the source give for `NS(=O)(=O)c1ccc(NC(=O)c2ccc(S(N)(=O)=O)cc2)cc1` here?
Answer: 3.05 µM

Question: For `Cn1nc(S(N)(=O)=O)s/c1=N/C(=O)c1c(F)c(F)c(F)c(F)c1F`, which Ki is on record?
Answer: 6.87 µM

Question: For `COc1ccc2oc(=O)cc(CC(=O)NNc3ccc(S(N)(=O)=O)cc3)c2c1`, which Ki is on record?
Answer: 3.51 µM

Question: With `CC(Cl)(Cl)c1ccc(NC(=O)NC(=S)Nc2ccc(S(N)(=O)=O)cc2)cc1` as the molecule, how does the Ki read?
Answer: 0.452 µM

Question: Which Ki does the source give for `NS(=O)(=O)c1ccc(/N=C/c2ccc(Br)c3ccccc23)cc1` here?
Answer: 4.16 µM

Question: Which Ki does the source give for `NS(=O)(=O)c1ccc(NC(=O)Nc2ccc(Cl)c(Cl)c2)cc1` here?
Answer: 5.58 µM

Question: For `NS(=O)(=O)c1ccccc1NC(=O)N(c1ccccc1)c1ccc(F)cc1`, which Ki is on record?
Answer: 2.26 µM

Question: Which Ki does the source give for `COc1ccc2oc(=O)cc(CC(=O)Nc3ccccc3S(N)(=O)=O)c2c1` here?
Answer: 1.44 µM

Question: With `NS(=O)(=O)c1nnc(NS(=O)(=O)c2c(F)c(F)c(F)c(F)c2F)s1` as the molecule, how does the Ki read?
Answer: 2.58 µM

Question: For `NC(=S)Nc1ccc(S(N)(=O)=O)cc1`, which Ki is on record?
Answer: 2.1 µM

Question: Which Ki does the source give for `COC(=O)NS(=O)(=O)c1ccc(NC(=S)Nc2ccc(S(N)(=O)=O)cc2)cc1` here?
Answer: 4.62 µM

Question: With `NS(=O)(=O)c1nnc(NS(=O)(=O)C(F)(F)C(F)(F)C(F)(F)C(F)(F)C(F)(F)C(F)(F)C(F)(F)C(F)(F)F)s1` as the molecule, how does the Ki read?
Answer: 0.192 µM

Question: For `NS(=O)(=O)c1ccc(Nc2ncsc2Cl)cc1`, which Ki is on record?
Answer: 0.164 µM
